Measurements published in US10053462B2, “P2X7 modulators” (Jansssen Pharmaceutica NV, priority 2013, dated 2018).
Like-named read-outs stand apart in the source and are kept apart here.

Molecular target: P2X7 (Homo sapiens (Human), UniProt Q99572)
Assay: P2X7 antagonism in human peripheral blood mononuclear cells (PBMCs), IL-1β release
Assay type: cell-based
Conditions: LPS 30 ng/ml + Bz-ATP 0.5 mM, read-out: PBMC 10 μM (% control)
Description: P2X7 Antagonism in Human Peripheral Blood Mononuclear Cells (PBMCs) and Human Whole Blood.
Human blood was collected using a blood donor program. PBMCs were isolated from blood using a Ficoll density gradient technique. Briefly, blood was laid on Ficoll solution and centrifuged at RT for 20 minutes at 2000 rpm. The buffy layer (between red blood cells and plasma) was carefully collected by aspiration, washed with PBS and centrifuged again at 1500 rpm for 15 minutes. The resulting cell pellet was washed and plated on 96 well-plates for experiments. For the Human Whole Blood experiments, 150 μl of human blood was platted on 96 well-plates. Lipopolysaccharide (LPS) (30 ng/ml) was added to each well and incubated for 1 hour. Test compounds were then added and incubated for 30 minutes. The P2X7 agonist, 2′(3′)-O-(4-benzoylbenzoyl) adenosine 5′-triphosphate (Bz-ATP) was then added at a final concentration of 0.5 mM (PBMC) or 1 mM (blood). Cells were incubated for an additional 1.5 hours. At that point, supernatant was collected and stored for IL-1β assay using manufacturer's protocol for enzyme-linked immunosorbent assay (ELISA). Data was expressed as percent control, where control is defined as the difference in IL-1β release in LPS+Bz-ATP samples and LPS only samples. Data was plotted as response (% control) versus concentration to generate IC50 values. […] Data are analyzed and graphed on Graphpad Prism 5. For analysis, each concentration point is averaged from triplicate values and the averaged values are plotted on Graphpad Prism.

[1] = P2X7, Table 2 (additional runs), 10 μM compound

Chain of P2X7 (Q99572 whole entry): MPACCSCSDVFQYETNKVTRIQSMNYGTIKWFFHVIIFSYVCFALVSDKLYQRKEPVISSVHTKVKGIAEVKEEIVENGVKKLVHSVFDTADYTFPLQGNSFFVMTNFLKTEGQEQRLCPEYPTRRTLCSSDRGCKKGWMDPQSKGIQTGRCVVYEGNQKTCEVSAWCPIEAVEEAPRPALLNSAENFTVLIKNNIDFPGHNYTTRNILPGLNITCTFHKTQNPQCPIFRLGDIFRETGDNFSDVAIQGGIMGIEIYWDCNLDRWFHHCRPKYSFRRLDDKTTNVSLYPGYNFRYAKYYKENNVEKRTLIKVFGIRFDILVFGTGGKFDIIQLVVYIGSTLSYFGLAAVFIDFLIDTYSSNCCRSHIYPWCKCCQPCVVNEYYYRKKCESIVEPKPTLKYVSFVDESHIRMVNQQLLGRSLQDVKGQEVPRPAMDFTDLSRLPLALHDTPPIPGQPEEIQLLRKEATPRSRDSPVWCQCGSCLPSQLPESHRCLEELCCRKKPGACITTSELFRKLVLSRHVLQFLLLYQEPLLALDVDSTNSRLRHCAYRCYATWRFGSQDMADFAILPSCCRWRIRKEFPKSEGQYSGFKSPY

Compound	remaining activity at 10 µM (P2X7, Table 1, 10 μM compound) [%]	remaining activity at 10 µM [1] [%]
O=C(c1cccc(C(F)(F)F)c1Cl)N1[C@H]2CCC[C@@H]1c1nnc(-c3ncccn3)n1C2 (stereo in doubt) [Example 2, (6S*,10R*)-11-{[2-Chloro-3-(trifluoromethyl)phenyl]carbonyl}-3-pyrimidin-2-yl-5,6,7,8,9,10-hexahydro-6,10-epimino[1,2,4]triazolo[4,3-a]azocine]	45.7	45.7
O=C(c1cccc(C(F)(F)F)c1Cl)N1[C@@H]2CCC[C@H]1c1nnc(-c3ncccn3)n1C2 (stereo in doubt) [Example 3, (6R*,10S*)-11-{[2-Chloro-3-(trifluoromethyl)phenyl]carbonyl}-3-pyrimidin-2-yl-5,6,7,8,9,10-hexahydro-6,10-epimino[1,2,4]triazolo[4,3-a]azocine]	8.9	8.9
O=C(c1cccc(C(F)(F)F)c1Cl)N1[C@H]2CCC[C@@H]1c1nnc(-c3ccc(F)cc3)n1C2 (stereo in doubt) [Example 5, (6S*,10R*)-11-{[2-Chloro-3-(trifluoromethyl)phenyl]carbonyl}-3-(4-fluorophenyl)-5,6,7,8,9,10-hexahydro-6,10-epimino[1,2,4]triazolo[4,3-a]azocine]	-4.4	-4.4
O=C(c1cccc(C(F)(F)F)c1Cl)N1[C@H]2CCC[C@@H]1c1nnc(-c3cscn3)n1C2 (stereo in doubt) [Example 8, (6S*,10R*)-11-{[2-Chloro-3-(trifluoromethyl)phenyl]carbonyl}-3-(1,3-thiazol-4-yl)-5,6,7,8,9,10-hexahydro-6,10-epimino[1,2,4]triazolo[4,3-a]azocine]	7.3	7.3
O=C(c1cccc(C(F)(F)F)c1Cl)N1[C@@H]2CCC[C@H]1c1nnc(-c3cscn3)n1C2 (stereo in doubt) [Example 9, (6R*,10S*)-11-{[2-Chloro-3-(trifluoromethyl)phenyl]carbonyl}-3-(1,3-thiazol-4-yl)-5,6,7,8,9,10-hexahydro-6,10-epimino[1,2,4]triazolo[4,3-a]azocine]	7.3	7.3
O=C(c1cccc(C(F)(F)F)c1Cl)N1[C@H]2CCC[C@@H]1c1nnc(-c3ccc(F)cn3)n1C2 (stereo in doubt) [Example 11, (6S*,10R*)-11-{[2-Chloro-3-(trifluoromethyl)phenyl]carbonyl}-3-(5-fluoropyridin-2-yl)-5,6,7,8,9,10-hexahydro-6,10-epimino[1,2,4]triazolo[4,3-a]azocine]	38.9	38.9
O=C(c1cccc(C(F)(F)F)c1Cl)N1[C@@H]2CCC[C@H]1c1nnc(-c3ccc(F)cn3)n1C2 (stereo in doubt) [Example 12, (6R*,10S*)-11-{[2-Chloro-3-(trifluoromethyl)phenyl]carbonyl}-3-(5-fluoropyridin-2-yl)-5,6,7,8,9,10-hexahydro-6,10-epimino[1,2,4]triazolo[4,3-a]azocine]	-0.8	3.6
O=C(c1cccc(C(F)(F)F)c1Cl)N1[C@H]2CCC[C@@H]1c1nnc(-c3cccnc3)n1C2 (stereo in doubt) [Example 14, (6S*,10R*)-11-{[2-Chloro-3-(trifluoromethyl)phenyl]carbonyl}-3-pyridin-3-yl-5,6,7,8,9,10-hexahydro-6,10-epimino[1,2,4]triazolo[4,3-a]azocine]	2.4	2.4
O=C(c1cccc(C(F)(F)F)c1Cl)N1[C@@H]2CCC[C@H]1c1nnc(-c3ncc(F)cn3)n1C2 (stereo in doubt) [Example 18, (6R*,10S*)-11-{[2-Chloro-3-(trifluoromethyl)phenyl]carbonyl}-3-(5-fluoropyrimidin-2-yl)-5,6,7,8,9,10-hexahydro-6,10-epimino[1,2,4]triazolo[4,3-a]azocine]	-9	-9
